# Where a name gives a salt, the structure may show the parent alone.
# Molecular target: human complement factor B (CVF-Bb complex) (Homo sapiens (Human), UniProt P00751)
# Assay: Human Complement Factor B ELISA Assay
# Type: biochemical
# Details: not given
# Summary of the method: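 Preformed CVF-Bb complex (3 nM; cobra venom factor with recombinant human factors B and D) preincubated with compound 1 h, RT, in PBS pH 7.4, 10 mM MgCl2, 0.05% CHAPS. Plasma C3 added at 1 μM final for 1 h, then stopped; C3a product measured by ELISA, IC50 from % inhibition.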
row,Compound,IC50 [nM]
1,"COc1cc2c(N)nc(N3CCN(C(=O)C[C@@H]4CCN4)C[C@@H]3c3ccccc3)nc2c(F)c1OC [Example 119, 1-[(S)-4-(4-Amino-8-fluoro-6,7-dimethoxy-quinazolin-2-yl)-3-phenyl-piperazin-1-yl]-2-(S)-azetidin-2-yl-ethanone hydrochloride]",610

# Same assay, conditions: CVF-Bb complex 3 nM, 1 hour preincubation with compound at room temperature, human C3 substrate 1 μM, C3a quantified by ELISA; read-out: Factor B IC50
row,Compound,IC50 [nM]
1,"COc1cc2c(N)nc(N3CCN(C(=O)C[C@H](c4ccc(F)cc4)N4CCCCC4)CC3)nc2c(F)c1OC [Example 99, (R)-1-[4-(4-Amino-8-fluoro-6,7-dimethoxy-quinazolin-2-yl)-piperazin-1-yl]-3-(4-fluoro-phenyl)-3-piperidin-1-yl-propan-1-one]",6
2,"COCCN[C@H](CC(=O)N1CCN(c2nc(N)c3cc(OC)c(OC)c(F)c3n2)CC1)c1ccc(F)cc1 [Example 100, (R)-1-[4-(4-Amino-8-fluoro-6,7-dimethoxy-quinazolin-2-yl)-piperazin-1-yl]-3-(4-fluoro-phenyl)-3-(2-methoxy-ethylamino)-propan-1-one]",20
3,"COc1cc2c(N)nc(N3CCN(C(=O)C[C@@H](NC(C)C)c4ccc(F)cn4)CC3)nc2c(F)c1OC [Example 101, (R)-1-[4-(4-Amino-8-fluoro-6,7-dimethoxy-quinazolin-2-yl)-piperazin-1-yl]-3-(5-fluoro-pyridin-2-yl)-3-isopropylamino-propan-1-one]",13
4,COc1cc2c(N)nc(N3CCN(C(=O)C[C@@H](NCC4(C)COC4)c4ccc(C#N)cc4)CC3)nc2c(F)c1OC [Example 102],1
5,COc1cc2c(N)nc(N3CCN(C(=O)C[C@H](c4ccc(F)cc4)N4CCCC4)CC3)nc2c(F)c1OC [Example 103],15
6,"COc1cc2c(N)nc(N3CCN(C(=O)[C@@H]4CCc5ccccc5[C@@H]4N)CC3)nc2c(F)c1OC [Example 104, [4-(4-Amino-8-fluoro-6,7-dimethoxy-quinazolin-2-yl)-piperazin-1-yl]-((1R,2R)-1-amino-1,2,3,4-tetrahydro-naphthalen-2-yl)-methanone]",760
7,"COc1cc2c(N)nc(N3CCN(C(=O)[C@@H]4CCc5ccccc5[C@@H]4N)C[C@@H]3C)nc2c(F)c1OC [Example 105, [(S)-4-(4-Amino-8-fluoro-6,7-dimethoxy-quinazolin-2-yl)-3-methyl-piperazin-1-yl]-((1R,2R)-1-amino-1,2,3,4-tetrahydro-naphthalen-2-yl)-methanone]",1070
8,"CC[C@H]1CN(C(=O)[C@@H]2CCc3ccccc3[C@@H]2N)CCN1c1nc(N)c2cc(OC)c(OC)c(F)c2n1 [Example 106, [(S)-4-(4-Amino-8-fluoro-6,7-dimethoxy-quinazolin-2-yl)-3-ethyl-piperazin-1-yl]-((1R,2R)-1-amino-1,2,3,4-tetrahydro-naphthalen-2-yl)-methanone]",2660
9,"COc1cc2c(N)nc(N3CCN(C(=O)[C@@H]4CCc5ccccc5[C@@H]4N)C[C@@H]3c3ccccc3)nc2c(F)c1OC [Example 107, [(S)-4-(4-Amino-8-fluoro-6,7-dimethoxy-quinazolin-2-yl)-3-phenyl-piperazin-1-yl]-((1R,2R)-1-amino-1,2,3,4-tetrahydro-naphthalen-2-yl)-methanone]",240
10,"COc1cc2c(N)nc(N3CCN(C(=O)C[C@@H]4CCCN4CC(C)C)CC3)nc2c(F)c1OC [Example 108, (S)-1-(4-(4-amino-8-fluoro-6,7-dimethoxyquinazolin-2-yl)piperazin-1-yl)-2-(1-isobutylpyrrolidin-2-yl)ethanone]",170
11,"COc1cc2c(N)nc(N3CCN(C(=O)C[C@@H]4CCN4)CC3)nc2c(F)c1OC [Example 109, 1-[4-(4-Amino-8-fluoro-6,7-dimethoxy-quinazolin-2-yl)-piperazin-1-yl]-2-(S)-azetidin-2-yl-ethanone]",4270
12,"COc1cc2c(N)nc(N3CCN(C(=O)C[C@@H]4CCCN4)CC3)nc2c(F)c1OC [Example 110, 1-[4-(4-Amino-8-fluoro-6,7-dimethoxy-quinazolin-2-yl)-piperazin-1-yl]-2-(S)-pyrrolidin-2-yl-ethanone]",140
13,"COc1cc2c(N)nc(N3CCN(C(=O)C[C@@H]4CC[C@H](c5ccccc5)N4)CC3)nc2c(F)c1OC [Example 111, 1-[4-(4-Amino-8-fluoro-6,7-dimethoxy-quinazolin-2-yl)-piperazin-1-yl]-2-((2S,5R)-5-phenyl-pyrrolidin-2-yl)-ethanone]",380
14,"COc1cc2c(N)nc(N3CCN(C(=O)CC4NCc5ccccc54)CC3)nc2c(F)c1OC (centres unmarked) [Example 112, 1-[4-(4-Amino-8-fluoro-6,7-dimethoxy-quinazolin-2-yl)-piperazin-1-yl]-2-(2,3-dihydro-1H-isoindol-1-yl)-ethanone]",350
15,"COc1cc2c(N)nc(N3CCN(C(=O)C[C@@H]4CCCCN4)CC3)nc2c(F)c1OC [Example 113, 1-[4-(4-Amino-8-fluoro-6,7-dimethoxy-quinazolin-2-yl)-piperazin-1-yl]-2-(S)-piperidin-2-yl-ethanone]",230
16,"COc1cc2c(N)nc(N3CCN(C(=O)C[C@@H]4CCCNC4)CC3)nc2c(F)c1OC [Example 114, 1-[4-(4-Amino-8-fluoro-6,7-dimethoxy-quinazolin-2-yl)-piperazin-1-yl]-2-(S)-piperidin-3-yl-ethanone]",3870

row,Compound,IC50 [nM]
1,"COc1cc2c(N)nc(N3CCN(C(=O)C[C@@H]4CCCN4)C[C@@H]3C)nc2c(F)c1OC [Example 115, 1-[(S)-4-(4-Amino-8-fluoro-6,7-dimethoxy-quinazolin-2-yl)-3-methyl-piperazin-1-yl]-2-(S)-pyrrolidin-2-yl-ethanone]",320
2,"CC[C@H]1CN(C(=O)C[C@@H]2CCCN2)CCN1c1nc(N)c2cc(OC)c(OC)c(F)c2n1 [Example 116, 1-[(S)-4-(4-Amino-8-fluoro-6,7-dimethoxy-quinazolin-2-yl)-3-ethyl-piperazin-1-yl]-2-(S)-pyrrolidin-2-yl-ethanone]",540
3,"CC[C@H]1CN(C(=O)C[C@@H]2CCCCN2)CCN1c1nc(N)c2cc(OC)c(OC)c(F)c2n1 [Example 117, 1-[(S)-4-(4-Amino-8-fluoro-6,7-dimethoxy-quinazolin-2-yl)-3-ethyl-piperazin-1-yl]-2-(S)-piperidin-2-yl-ethanone]",780
4,"CCC[C@H]1CN(C(=O)C[C@@H]2CCCN2)CCN1c1nc(N)c2cc(OC)c(OC)c(F)c2n1 [Example 118, 1-[(S)-4-(4-Amino-8-fluoro-6,7-dimethoxy-quinazolin-2-yl)-3-propyl-piperazin-1-yl]-2-(S)-pyrrolidin-2-yl-ethanone]",270
5,"COc1cc2c(N)nc(N3CCN(C(=O)C[C@@H]4CCCN4)C[C@@H]3c3ccccc3)nc2c(F)c1OC [Example 120, 1-[(S)-4-(4-Amino-8-fluoro-6,7-dimethoxy-quinazolin-2-yl)-3-phenyl-piperazin-1-yl]-2-(S)-pyrrolidin-2-yl-ethanone]",80
6,"COc1cc2c(N)nc(N3CCN(C(=O)C[C@@H]4CCCCN4)C[C@@H]3c3ccccc3)nc2c(F)c1OC [Example 121, 1-[(S)-4-(4-Amino-8-fluoro-6,7-dimethoxy-quinazolin-2-yl)-3-phenyl-piperazin-1-yl]-2-(S)-piperidin-2-yl-ethanone]",20
7,"COc1cc2c(N)nc(N3CCN(C(=O)C[C@@H]4CCCNC4)C[C@@H]3c3ccccc3)nc2c(F)c1OC [Example 122, 1-[(S)-4-(4-Amino-8-fluoro-6,7-dimethoxy-quinazolin-2-yl)-3-phenyl-piperazin-1-yl]-2-(S)-piperidin-3-yl-ethanone]",200
8,"COc1cc2c(N)nc(N3CCN(C(=O)CC4CNCCO4)C[C@@H]3c3ccccc3)nc2c(F)c1OC (stereo partly drawn) [Example 123, 1-[(S)-4-(4-Amino-8-fluoro-6,7-dimethoxy-quinazolin-2-yl)-3-phenyl-piperazin-1-yl]-2-morpholin-2-yl-ethanone]",890
9,"COCCOc1c(OC)cc2c(N)nc(N3CCN(C(=O)C[C@@H]4CCCN4)CC3)nc2c1F [Example 124, 1-{4-[4-Amino-8-fluoro-6-methoxy-7-(2-methoxy-ethoxy)-quinazolin-2-yl]-piperazin-1-yl}-2-(S)-pyrrolidin-2-yl-ethanone]",5950
10,"COCCOc1c(OC)cc2c(N)nc(N3CCN(C(=O)C[C@@H]4CCCCN4)CC3)nc2c1F [Example 125, 1-{4-[4-Amino-8-fluoro-6-methoxy-7-(2-methoxy-ethoxy)-quinazolin-2-yl]-piperazin-1-yl}-2-(S)-piperidin-2-yl-ethanone]",9950
11,"COc1cc2c(N)nc(N3CCN(C(=O)C[C@@H]4CCCCN4)CC3)nc2c(C#N)c1OC [Example 126, (S)-4-Amino-6,7-dimethoxy-2-(4-(2-(piperidin-2-yl)acetyl)piperazin-1-yl)quinazoline-8-carbonitrile]",2900
12,"COc1cc2c(N)nc(N3CCN(C(=O)C[C@H]4NCCc5ccccc54)CC3)nc2c(F)c1OC [Example 127, 1-[4-(4-Amino-8-fluoro-6,7-dimethoxy-quinazolin-2-yl)-piperazin-1-yl]-2-(R)-1,2,3,4-tetrahydro-isoquinolin-1-yl-ethanone]",200
13,"COc1cc2c(N)nc(N3CCN(C(=O)CC4NCCc5cc(F)ccc54)CC3)nc2c(F)c1OC (centres unmarked) [Example 128, 1-[4-(4-Amino-8-fluoro-6,7-dimethoxy-quinazolin-2-yl)-piperazin-1-yl]-2-(6-fluoro-1,2,3,4-tetrahydro-isoquinolin-1-yl)-ethanone]",120
14,"COc1cc2c(N)nc(N3CCN(C(=O)C[C@@H](CN)c4ccccc4)CC3)nc2c(F)c1OC [Example 129, (R)-4-Amino-1-[4-(4-amino-8-fluoro-6,7-dimethoxy-quinazolin-2-yl)-piperazin-1-yl]-3-phenyl-butan-1-one]",710
15,"COc1cc2c(N)nc(N3CCN(C(=O)C[C@@H](C(N)=O)c4ccc(F)cc4)CC3)nc2c(F)c1OC [Example 130, (R)-4-[4-(4-Amino-8-fluoro-6,7-dimethoxy-quinazolin-2-yl)-piperazin-1-yl]-2-(4-fluoro-phenyl)-4-oxo-butyramide]",10
